Reference: patent publication US20260256771A1, “GALUNISERTIB FOR USE IN THE TREATMENT OF ANDROGENIC ALOPECIA” (SAÚDE VIÁVEL, S.A., priority 2022, published 2026)

How the values were obtained:
[1] = system: TGFβ2; experiment: qRT-PCR of TGFβ transcripts in dermal papilla isolated from HFOCs; assay type: cell-based, human; conditions: DP isolated from human HFs cultured ex vivo for 48 h; DHT-treated (1 μM) vs. untreated HFOCs
Description: Concentration and purity are ascertained in a NanoDrop spectrophotometer.
(§1) In addition, only anagen hair follicles are used.
(§2) Hair growth percentages is normalized to day 0.

[2] = system: phosphorylated SMAD2 (p-SMAD2); experiment: Western blot of phospho-SMAD2 in hair bulbs of HFOCs; assay type: cell-based, human; conditions: untreated vs DHT-treated HFOCs, 72 h
Procedure: For western blot, hair bulbs are dissected from HFOCs treated with DMSO, DHT and Galunisertib for 72 h. Upon rinse in PBS, hair bulbs are lysed in Laemmli buffer (without bromophenol blue) with Halt Protease Inhibitor Cocktail and Halt Phosphatase Inhibitor Cocktail, and lysates are sonicated. Lysates from 10 hair bulbs are used for each condition tested. Total extracts are then loaded in SDS-polyacrylamide gels and transferred onto nitrocellulose membranes for western blot analysis. Membranes are blocked during 1 h with TBS+5% BSA. Primary and secondary antibodies are diluted in TBS+2% BSA accordingly to Supplementary Table 1. Signal is detected using Clarity Western ECL Substrate reagent. A GS-800 calibrated densitometer with Quantity One 1-D Analysis Software 4.6 (Bio-Rad Laboratories) is used for quantitative analysis of protein levels.
as §1, §2

[3] = system: TGFβ1; conditions: DP isolated from human HFs cultured ex vivo for 48 h; DHT-treated (1 μM) vs. untreated HFOCs
Procedure: (§3) For RNA isolation and Quantitative Real-Time PCR (qPCR), Qiagen RNeasy kit (Qiagen, Germany) is used to isolate RNA. Concentration and purity are ascertained in a NanoDrop spectrophotometer. 600 ng of RNA are reverse transcribed into complementary DNA with iScript™ cDNA Synthesis Kit. Quantitative real-time polymerase chain reactions (qPCRs) are performed in a CFX384 Touch™ Real-Time PCR Detection System (Bio-Rad Laboratories). 10 μl reaction mixes are prepared consisting of iTaq™ Universal SYBR® Green Supermix (Bio-Rad Laboratories), forward and reverse primers (at 125 nM each) and cDNA (30 ng). The amplification program used is: 95° C. for 3 min, followed by 39 cycles of 95° C. for 10 s, 60° C. for 35 s, and melt curve from 55° C. to 95° C. with 0.5° C. increment for 10 s. All primers are designed to span at least one […]. Transcript levels are quantified by the 2-ΔΔCt method. ΔCt values are determined by subtracting the geometrical mean of the Ct values for GAPDH and UBQ from the mean target gene Ct value.
(§4) Hair grafts are obtained from male patients aged between 18-55 years with informed consent. A total of 10-20 micrografts are harvested from the occipital scalp of patients diagnosed with androgenic alopecia and undergoing autologous hair transplantation by the routine FUE technique.

[4] = system: TGFβ3; conditions: DP isolated from human HFs cultured ex vivo for 48 h; DHT-treated (1 μM) vs. untreated HFOCs
Procedure: as §3, §4

C[C@]12CCC(=O)C[C@@H]1CC[C@@H]1[C@@H]2CC[C@]2(C)[C@@H](O)CC[C@@H]12 [DHT, dihydrotestosterone]
TGFβ2 transcript levels in DP [1]: slightly increased
p-SMAD2 protein levels in hair bulbs [2]: equivalent
TGFβ1 transcript levels in DP [3]: remaining unchanged
TGFβ3 transcript levels in DP [4]: remaining unchanged
